Assay results from ChEMBL document CHEMBL1133376, “Recognition and inhibition of HIV integrase by a novel dinucleotide” (Bioorg Med Chem Lett, 2000).

Columns and labels:
[1] = molecular target: Human immunodeficiency virus type 1 integrase (Human immunodeficiency virus 1) (UniProt Q7ZJM1); experiment: Inhibition of 3' processing step useful in the integration of viral DNA into host cell DNA by inhibiting HIV integrase by compound
[2] = molecular target: Human immunodeficiency virus type 1 integrase (Human immunodeficiency virus 1) (UniProt Q7ZJM1); experiment: Inhibition of strand transfer step useful in the integration of viral DNA into host cell DNA by inhibiting HIV integrase by compound

Chain of Human immunodeficiency virus type 1 integrase (Human immunodeficiency virus 1) (Q7ZJM1 as listed by the source): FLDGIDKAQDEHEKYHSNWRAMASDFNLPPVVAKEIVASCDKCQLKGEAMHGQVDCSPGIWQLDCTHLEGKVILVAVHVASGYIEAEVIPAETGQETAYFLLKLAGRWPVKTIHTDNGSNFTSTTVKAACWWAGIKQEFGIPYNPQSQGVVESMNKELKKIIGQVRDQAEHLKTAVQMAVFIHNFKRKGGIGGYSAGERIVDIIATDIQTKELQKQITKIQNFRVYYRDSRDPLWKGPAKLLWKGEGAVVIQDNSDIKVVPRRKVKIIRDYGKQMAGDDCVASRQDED

Row | SMILES | Inhibitory activity [1] [µM] | Inhibitory activity [2] [µM]
1 | Cc1cn([C@H]2C[C@H](N=[N+]=[N-])[C@@H](COP(=O)(O)O)O2)c(=O)[nH]c1=O | > 110 | 140
2 | Nc1ncnc2c1ncn2C1COC(COP(=O)(O)O)C1O (configuration not stated) | > 200 | > 200
3 | Nc1ccn([C@H]2C[C@H](O)[C@@H](COP(=O)(O)O[C@H]3C[C@H](n4cnc5c(N)ncnc54)O[C@@H]3COP(=O)(O)O)O2)c(=O)n1 | 6 | 3

Continued, values first:

Row | Inhibitory activity [1] [µM] | Inhibitory activity [2] [µM] | SMILES
4 | 50 | 45 | Nc1ccn(C2CCC(COP(=O)(O)O)O2)c(=O)n1 (configuration not stated)
5 | 19 | 25 | Nc1ccn([C@H]2C[C@H](O)[C@@H](COP(=O)(O)O[C@H]3[C@H](n4cnc5c(N)ncnc54)CO[C@@H]3COP(=O)(O)O)O2)c(=O)n1
6 | 200 | 200 | Nc1ccn([C@H]2C[C@H](O)[C@@H](COP(=O)(O)O[C@H]3[C@H](n4cnc5c(N)ncnc54)CO[C@@H]3CO)O2)c(=O)n1
